Experimental data from patent publication US20030108980A1, “Bioluminescent methods for direct visual detection of environmental compounds” (priority 2000, published 2003).

Tests used:
[1] = tested on: E. coli ARL3; assay: Detection of mercury using bioluminescence, strain ARL3; assay type: cell-based; details: 500 μg HgCl2/L
Description: (§1) Strains ARL1, ARL2, and ARL3 were screened for bioluminescence production in the presence of HgCl2. Each strain was grown in LB medium to an OD546nm of 0.35 at which time 500 μg HgCl2/L was added. Induction of bioluminescence in the presence of mercury was rapid (FIG. 5) with significant light produced in 30 minutes. Strain ARL2 had higher background bioluminescence (˜31,486 cps) in the absence of mercury relative to strain ARL1 and ARL3 (˜13,798 and ˜12,762 respectively). After 20 minutes, strain ARL2 produced approximately twice the amount of bioluminescence ((˜1,791,560 cps) relative to strains ARL1 and ARL3 (˜917.496 and 825,240 cps respectively).

[2] = tested on: E. coli ARL1; assay: Detection of mercury using bioluminescence, strain ARL1; assay type: cell-based; details: 500 μg HgCl2/L
Description: as §1

[3] = tested on: E. coli ARL2; assay: Detection of mercury using bioluminescence, strain ARL2; assay type: cell-based; details: 500 μg HgCl2/L
Description: as §1

[4] = tested on: P. fluorescens 5RL; assay: Prototype test strip, naphthalene/salicylate bioreporter; assay type: cell-based; details: 5 ppm naphthalene in mixture with 1 ppm Hg2+ and 10 ppm toluene
From the text: (§2) 1. The bottom layer is absorbent Whatman filter paper.
(§3) 2. The second layer is an impermeable water barrier. Currently we are using aluminum foil.
(§4) 4. The fourth layer is the styrene sheet. […] There is one circle for each bioreporter.
(§5) 5. The last layer is the encapsulated cells.
(§6) Water will be wicked up the filter paper.

[5] = tested on: P. fluorescens 5RL (pUTK21); details: cited from earlier work
[6] = tested on: P. putida TVA8; details: cited from earlier work
[7] = tested on: P. putida TVA8; assay: Prototype test strip, toluene bioreporter; assay type: cell-based; details: 10 ppm toluene in mixture
From the text: as §2, §3, §4, §5, §6
[…]. […] […].

[8] = tested on: P. fluorescens 5RL; details: salicylate 10 and 100 ppm, cellulose filter strips, room temperature
Description: Strips were removed and excess fluid was drained. These filter strips with cells were placed on a second set of strips impregnated with salicylic acid (10 and 100 ppm).
Briefly, a 100 μl sample of an uninduced culture of Pseudomonas fluorescens 5RL was placed in a sterile petri dish containing LB broth (10 ml) supplemented with tetracycline (14 μg/mI).

[9] = tested on: E. coli EC100; details: cellulose strips

With `[Cl][Hg][Cl]` [HgCl2] the “time to significant light production” value [1] was 30 min, the “bioluminescence after 20 minutes” value ([1]; LB medium, OD546nm 0.35) was ~825,240 cps and the “time to significant light production” value [2] was 30 min. For the same compound, the “time to significant light production” value [3] was 30 min and the “bioluminescence after 20 minutes” value ([3]; LB medium, OD546nm 0.35) was ~1,791,560 cps.

For `c1ccc2ccccc2c1` [Naphthalene], the “visibility of bioluminescence on test strip” value [4] is listed as “visible to the naked eye”, the “Lower Detection Limits” value [5] is listed as “˜50 ppb” and the “Response Time” value [5] is listed as “˜1 hour”.

For `Cc1ccccc1` [Toluene], the “Response Time” value [6] is given as 25 ppm and the “visibility of bioluminescence on test strip” value [7] is given as “only detectable with a photomultiplier”.

In the case of `O=C([O-])c1ccccc1O.[Na+]` [salicylate, sodium salicylate], the “time to light visible to the naked eye” value [8] is reported as “less than 60 min” and the “time to visible light after contact of test strips with inducer solution” value [9] is reported as “less than one hour”.
